From publication PMC8658989, “Synthesis and Biological Studies on (KLAKLAK)2-NH2 Analog Containing Unnatural Amino Acid β-Ala and Conjugates with Second Pharmacophore” (Molecules, 2021)
No end group written: not given here.

Key:
MCF-10A = test system: MCF-10A; design: method as in PMID 33567789; conditions: MTT; data already published; ref [25]; read-out: IC50 of Mean ± SD Antiproliferative Activity MCF-10A; cited from earlier work
MCF-7 [1] = test system: MCF-7; design: method as in PMID 33567789; conditions: MTT; data already published; ref [25]; read-out: IC50 of Mean ± SD Antiproliferative Activity MCF-7; cited from earlier work
MDA-MB-231 [2] = test system: MDA-MB-231; design: method as in PMID 33567789; conditions: MTT; data already published; ref [25]; read-out: IC50 of Mean ± SD Antiproliferative Activity MDA-MB-231; cited from earlier work
MCF-7 [3] = assay: Antiproliferative activity, MTT dye-reduction assay, MCF-7; type: cell-based, human; conditions: SI = IC50 of MCF-10A/IC50 of MCF-7
Procedure: (§1) The compounds were studied for antiproliferative activity by MTT dye-reduction assay. Cell cultures from different cell lines (MCF-10A, MCF-7 and MDA-MB-231) were incubated with the test substances at a concentration of 15 to 2000 μM for 72 h at 37 °C, 5% CO2 and 95% humidity. The antiproliferative activity expressed in % relative to the negative control was determined.
(§2) The antiproliferative activity testing was performed on cell cultures from several human cell lines using the standard MTT dye-reduction assay, described by Mosmann. The assay is based on the metabolism of the tetrazolium salt 3-(4,5-dimethylthiazol-2-yl)-2,5-diphenyltetrazolium bromide (MTT) to insoluble formazan by mitochondrial reductases. The formazan concentration can be determined spectrophotometrically. The measured absorption is an indicator of cell viability and metabolic activity. The following cell lines were used in the experiments: mammary gland type A adenocarcinoma ER+, PR+ and HER2− (MCF-7); triple-negative breast cancer ER−, PR−, and HER2− (MDA-MB-231); and breast, nontumorigenic epithelial cell line (MCF-10A). The cell lines were routinely grown as monolayers in 75 cm^2 tissue culture flasks under standard conditions (described above). Cells were plated at a density of 1 × 10^3 cells in 100 µL in each well of 96-well flat-bottomed microplates and allowed to adhere for 24 h before treatment with test compounds. A concentration range from 15 to 2000 μM was applied for 72 h. Formazan absorption was registered using a microplate reader at λ = 540 nm. Antiproliferative activities were expressed as IC50 values (concentrations required for 50% inhibition of cell growth), calculated using nonlinear regression analysis (GraphPad Prism 4 Software, https://www.graphpad.com).

MDA-MB-231 [4] = assay: Antiproliferative activity, MTT dye-reduction assay, MDA-MB-231; type: cell-based, human; conditions: SI = IC50 of MCF-10A/IC50 of MDA-MB-231
Procedure: as §1, §2

For KLAKLAK-NH2 [Si6], the IC50 (MCF-10A) is listed as > 2000 µM, the IC50 (MCF-7 [1]) is listed as > 2000 µM and the IC50 (MDA-MB-231 [2]) is listed as > 2000 µM.

In the case of `CC(C)C[C@H](NC(=O)[C@H](CCCCN)NC(=O)[C@H](C)NC(=O)[C@H](CC(C)C)NC(=O)[C@H](CCCCN)NC(=O)[C@H](CCCCN)NC(=O)[C@H](C)NC(=O)[C@H](CC(C)C)NC(=O)[C@H](CCCCN)NC(=O)[C@H](C)NC(=O)[C@H](CC(C)C)NC(=O)[C@@H](N)CCCCN)C(=O)N[C@@H](C)C(=O)N[C@@H](CCCCN)C(N)=O` [Si1, (KLAKLAK)2-NH2], the “SI ± SD MCF-7 (selective index)” value (MCF-7 [3]) is listed as 1.243 ± 0.052, the “SI ± SD MDA-MB-231 (selective index)” value (MDA-MB-231 [4]) is listed as 0.206 ± 0.007 and the IC50 (MCF-10A) is listed as 154 ± 6.53 µM. The IC50 (MCF-7 [1]) was 124 ± 8.12 µM and the IC50 (MDA-MB-231 [2]) was 746 ± 7.6 µM.
